Data from US10426815B2, “Prevention and treatment of itch with an MRGPR antagonist” (THE GENERAL HOSPITAL CORPORATION, priority 2015, dated 2019).
“Also recorded” adds a separate entry of the source.

Assays:
Test in all cases: Calcium imaging of cells transfected with the GPCR (Table 1)
Type in all cases: cell-based
[1] = target: T1, MrgB2 (mouse MrgprB2) (Mus musculus, UniProt Q3KNA1); settings: for inhibition of SP-induced activation of mouse MrgprB2: FIG. 11: SP 50 μM, NK1 antagonists 50 μM
T1 construct: expressed in transfected cells; host or cells: HeLa cells, pcDNA3.1(-)
T1 sequence (Q3KNA1 1-338): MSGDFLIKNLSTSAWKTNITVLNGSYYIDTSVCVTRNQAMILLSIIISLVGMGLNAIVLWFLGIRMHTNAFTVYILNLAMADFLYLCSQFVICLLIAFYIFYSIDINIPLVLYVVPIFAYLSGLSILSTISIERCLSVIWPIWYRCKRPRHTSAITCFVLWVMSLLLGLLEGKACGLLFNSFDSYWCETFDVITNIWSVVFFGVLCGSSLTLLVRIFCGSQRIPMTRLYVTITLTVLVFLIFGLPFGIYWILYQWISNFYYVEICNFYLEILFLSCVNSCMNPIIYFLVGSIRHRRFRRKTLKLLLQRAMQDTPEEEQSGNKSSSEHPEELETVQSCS
Procedure: (§1) human MRGPRX2 was isolated by PCR from human genomic DNA using the forward and reverse primers, […] (SEQ. ID. NO: 3) and […] (SEQ. ID. NO: 4), and cloned into pcDNA3.1(−). The mouse MrgprA1 cDNA expression clone was purchased from ORIGENE Technologies. The mouse MrgprB2 coding sequences were PCR-amplified from mouse genomic DNA using the primer pair, […] (SEQ. ID. NO: 5) and […] (SEQ. ID. NO: 6), and cloned into pcDNA3.1 (−).
(§2) 10 μg of expression vector (human MRGPRX2, mouse MrgprA1 or NK1) and 10 μl of LIPOFECTAMINE 2000 transfection reagent were diluted into 0.5 ml of DMEM and separately left at room temperature (RT) for 5 min. They were then mixed and incubated at RT for 20 minutes prior to being added to HeLa cells. HeLa cells were grown to confluence, trypsinized and 1×10^6 cells were pelleted in a 15 ml tube by centrifugation at 1000 rpm for 5 minutes. The DMEM-LIPOFECTAMINE 2000-DNA mixture (1 ml) was then added to the cell pellet, suspended and incubated at RT for 5 minutes. 2 ml of complete DMEM with 10% FBS without antibiotics were added to the tube, mixed by inverting the tube, plated into a 96-well glass bottom plate at 50,000 cells/well, and placed in a 37° C. CO2 incubator for 3 hours. HeLa cells transfected with salmon sperm DNA were plated as a control. The medium was changed after 3 hours and left in the incubator. 24 hours after transfection, the medium in the wells was removed and 100 μl of complete DMEM containing 2 μM of FURA-2 were added to each well and left at room temperature in the dark for 1 hr.
(§3) Calcium imaging was performed immediately after loading cells with Fura-2, using a ZEISS Axiovert 200M microscope platform equipped with a flipping filter wheel for ratiometric imaging. Axiovision software, version 4.6 was used for calcium image analysis of the cells excited at 340 nm and 380 nm. Agonists were added at 15 seconds after the start of the excitation procedure. Antagonists were added five minutes before imaging with the agonists. Images were taken every 5 seconds, including at zero time, during a 90 second period or longer if required. The software later analyzed all images taken during each excitation period. Ratiometric changes were measured in 10-20 cells in each individual experiment. An average of the fluorescence of the cells in each image was calculated and plotted against time in seconds.

[2] = target: T2, MrgA1 (mouse MrgprA1) (Mus musculus, UniProt Q91WW5); settings: for activation of mouse MrgprA1 by the substance (in words): NPFF 50 μM, SP at nanomolar concentrations; for inhibition of SP-induced activation of mouse MrgprA1: FIG. 6a: SP 5 μM, inhibitors 10 μM, FK888 10 μM
T2 construct: host or cells: HeLa cells
T2 sequence (Q91WW5 1-304): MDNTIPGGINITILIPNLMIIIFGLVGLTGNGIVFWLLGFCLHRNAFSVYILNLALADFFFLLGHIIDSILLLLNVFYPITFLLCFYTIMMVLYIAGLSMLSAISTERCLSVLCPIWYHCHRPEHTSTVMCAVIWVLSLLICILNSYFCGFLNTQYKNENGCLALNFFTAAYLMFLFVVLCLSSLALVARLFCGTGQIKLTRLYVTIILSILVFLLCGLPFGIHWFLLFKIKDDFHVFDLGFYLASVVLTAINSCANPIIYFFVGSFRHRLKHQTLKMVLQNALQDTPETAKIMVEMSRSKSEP
Procedure: as §1
as §2, with “hr. Following loading with FURA-2, the medium was removed, washed with PBS and replaced with 90 μl of HEPES-buffered saline (20 mM HEPES, 115 mM NaCl, 5.4 mM KCl, 2 mM CaCl2, 0.8 mM MgCl2, 13.8 mM glucose, pH 7.4).” for “hr.”
as §3
HeLa cells transfected with human MRGPRX2, mouse MrgprA1 and NK1 cDNAs were subjected to ratiometric imaging as described above with SP at concentrations from 0.1 nM-50 μM. Each of the concentration dependent readings was performed in triplicate. Maximum intensities at each of the dilutions were calculated and plotted against concentration using GraphPad Prism software. Error bars represent SEM.
The top row lists ligands that have been tested versus the various receptors, both in the absence and presence of QWF.

[3] = target: T3, MrgX1 (human MRGPRX1) (Homo sapiens, UniProt Q96LB2)
T3 construct: expressed in transfected cells; host or cells: HeLa cells, pcDNA3.1(-)
T3 sequence (Q96LB2 whole entry): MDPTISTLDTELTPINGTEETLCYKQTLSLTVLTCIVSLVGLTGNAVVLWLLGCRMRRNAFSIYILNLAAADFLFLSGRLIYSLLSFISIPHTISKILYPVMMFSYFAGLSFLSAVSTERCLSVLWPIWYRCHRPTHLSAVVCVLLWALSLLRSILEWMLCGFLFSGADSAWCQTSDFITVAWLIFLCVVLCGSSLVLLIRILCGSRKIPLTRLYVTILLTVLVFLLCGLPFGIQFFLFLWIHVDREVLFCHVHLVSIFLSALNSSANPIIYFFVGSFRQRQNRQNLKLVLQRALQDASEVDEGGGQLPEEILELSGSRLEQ
Procedure: Human NK1 cDNA was obtained from LIFE Technologies, PCR cloned with Xho I-Hind III ends and cloned into pcDNA3.1(−). Mouse NK2 and NK3 expression-ready vectors were obtained from […] (Piscataway, N.J.). All other Mrgprs (human MRGPRX1, human MRGPRX2, human MRGPRX3, human MRGPRX4, mouse MrgprA2a, mouse MrgprA2b, mouse MrgprA3, mouse MrgprA4, mouse MrgprA9, mouse MrgprA10, mouse MrgprB4 and mouse MrgprB5) were cloned by PCR from genomic DNAs and inserted into pcDNA3.1 (−).
as §2, §3

Molecule | activation of mouse MrgprB2 by the substance (in words) [1] | activation of mouse MrgprA1 by the substance (in words) [2] | inhibition of SP-induced activation of mouse MrgprB2 [1] | inhibition of SP-induced activation of mouse MrgprA1 [2] | other results
SP: inflammatory undecapeptide neuropeptide of the tachykinin family, synthesized by GenScript | activates | activates; also recorded: specifically activated |  |  | activation of human MRGPRX1 by the substance (in words) ([3]; SP 10 μM (FIG. 9), chloroquine 100 μM (FIG. 7c)): does not activate
C[C@@H](O[C@H]1OCCN(Cc2n[nH]c(=O)[nH]2)[C@H]1c1ccc(F)cc1)c1cc(C(F)(F)F)cc(C(F)(F)F)c1 [aprepitant] |  |  | antagonized; also recorded: antagonists | did not impact and not | 
SLIGRL: tethered hexapeptide ligand of mouse PAR2 (SEQ ID NO: 7) | activates | activates |  |  | 
FC(F)(F)c1cc(CO[C@H]2CCCN[C@H]2c2ccccc2)cc(C(F)(F)F)c1 [L-733060] |  |  | antagonized; also recorded: antagonists | did not impact | inhibition of SP-induced activation of mouse MrgprA1 ([2]; listed as L733060): not
Boc-Gln-D-Trp(Formyl)-Phe benzyl ester trifluoroacetate [QWF] |  |  | inhibits; also recorded: antagonized; also recorded: antagonist | excellent inhibitor; also recorded: potent antagonist; also recorded: inhibits; also recorded: blocks | inhibition of mMrgprB2 activation by compound 48/80 [1]: inhibits; inhibition of mouse MrgprB2 activation by atracurium and ciprofloxacin ([1]; FIG. 8a): antagonized; also recorded: inhibits; inhibition of mMrgprB2 activation by SLIGRL ([1]; SLIGRL 10 μM, QWF 10 μM (FIG. 12)): inhibits; inhibition of mMrgprA1 activation by compound 48/80 [2]: inhibits; inhibition of human MRGPRX1 activation by chloroquine (CQ) ([3]; FIG. 7c: CQ 100 μM, QWF 100 μM): does not affect; also recorded: does not inhibit
